Measured values: patent US10851067B2, “Kv7 channel activators compositions and methods of use” (Knopp Biosciences LLC, priority 2018, dated 2020)

target: Kv7.2/7.3 (Homo sapiens, UniProt O43525+O43526); test: Kv7.2/7.3 Thallium Flux Assay; type: cell-based; design: host or cells: HEK cells, tetracycline-inducible expression; conditions: read-out: Kv7.2/7.3 Activity: EC50 of Kv7.2/Kv7.3 activation
From the text: The Thallium Flux Assay is used as a surrogate indicator of potassium channel activity.
The experimental protocol was adapted from the FluxOR™ II Green Potassium Ion Channel Assay User Guide (Pub. No. MAN0016084, Invitrogen). Conditions were optimized for the Kv7.2/7.3 cell line.
The hKV7.2/7.3 cell line was obtained from Chantest (Cleveland, Ohio 44128) cat. #CT6147.
Kv7.2/7.3 cells were maintained in a media containing DMEM/F12; 50/50 (GIBCO cat. #11330), 10% Fetal Bovine Serum (FBS) (GIBCO cat. #26140), 100 units/mL Penicillin-Streptomycin (GIBCO cat. #15140), 0.005 mg/ml Blasticidin (SIGMA 15205), 0.5 mg/mL Geneticin (GIBCO cat. #10131), and 0.1 mg/mL Zeocin (GIBCO cat. #R25001). One day prior to experimentation, cells were plated in 96 well clear bottom plates (Corning cat. #353219) in a media without Blasticidin, Geneticin, or Zeocin. Channel expression was induced by adding tetracycline (Bioline cat. #BIO87030) at a final concentration of 10 ng/mL.
The test compound is diluted in a mixture of 0.1% DMSO/extracellular solution with an eight-point concentration range from 0.014 μM to 30 μM. Serial dilutions were made on a Biomek NXP (BECKMAN COULTER).
Measurement and Data Analysis:
A plate reader (Enspire, Perkin Elmer) is used to characterize the ion-channel modulating properties of novel compounds using an excitation wavelength of 475 nm and an emission wavelength of 530 nm. After a 15 sec baseline measurement, the stimulus buffer containing thallium and potassium is injected. A final endpoint measure is taken after 90 sec. Responses are normalized to positive control (retigabine, 30 µM max). Mean normalized responses at each concentration tested are fit to the standard Hill equation to generate an EC50 and maximal response.

| SMILES | EC50 [nM] |
| --- | --- |
| CC(C(=O)Nc1nc2c(F)cc(C#N)c(F)c2n1C1(C)CCC1)C1(C(F)(F)F)CC1 (single isomer, unassigned) [Example 544, N-(6-cyano-4,7-difluoro-1-(1-methylcyclobutyl)-1H-benzo[d]imidazol-2-yl)-2-(1-(trifluoromethyl)cyclopropyl)propanamide] | < 1000 |
| CC(C(=O)Nc1nc2ccc(C(C)(C)O)cc2n1C1(C)CCC1)C1(C(F)(F)F)CC1 (single isomer, unassigned) [Example 489, N-(6-(2-hydroxypropan-2-yl)-1-(1-methylcyclobutyl)-1H-benzo[d]imidazol-2-yl)-2-(1-(trifluoromethyl)cyclopropyl) propanamide] | < 1000 |
| CC(C(=O)Nc1nc2c(F)cc(C#N)c(F)c2n1C1(C)CCC1)C1(C(F)(F)F)CC1 (single isomer, unassigned) [Example 543, N-(6-cyano-4,7-difluoro-1-(1-methylcyclobutyl)-1H-benzo[d]imidazol-2-yl)-2-(1-(trifluoromethyl)cyclopropyl)propanamide] | < 1000 |
| CC(C)(C)CC(=O)Nc1nc2c(F)cc(C#N)c(F)c2n1C1(C)CCC1 [Example 517, N-(6-cyano-4,7-difluoro-1-(1-methylcyclobutyl)-1H-benzo[d]imidazol-2-yl)-3,3-dimethylbutanamide] | < 1000 |
| CC(C(=O)Nc1nc2c(F)cc(C#N)cc2n1C1(C)CCC1)C1(C(F)(F)F)CC1 (single isomer, unassigned) [Example 494, N-(6-cyano-4-fluoro-1-(1-methylcyclobutyl)-1H-benzo[d]imidazol-2-yl)-2-(1-(trifluoromethyl)cyclopropyl)propanamide] | < 1000 |
| C=Cc1c(F)ccc2nc(NC(=O)CC(C)(C)C)n(C3CCC3)c12 [Example 552, N-(1-cyclobutyl-6-fluoro-7-vinyl-1H-benzo[d]imidazol-2-yl)-3,3-dimethylbutanamide] | < 1000 |
| CC(C(=O)Nc1nc2ccc(Cl)c(F)c2n1C1(C)CCC1)C1(C(F)(F)F)CC1 (single isomer, unassigned) [Example 556, N-(6-chloro-7-fluoro-1-(1-methylcyclobutyl)-1H-benzo[d]imidazol-2-yl)-2-(1-(trifluoromethyl)cyclopropyl)propanamide] | < 1000 |
| CC(C(=O)Nc1nc2c(F)cc(C(C)(C)O)cc2n1C1CCC1)C1(C(F)(F)F)CC1 (single isomer, unassigned) [Example 497, N-(1-cyclobutyl-4-fluoro-6-(2-hydroxypropan-2-yl)-1H-benzo[d]imidazol-2-yl)-2-(1-(trifluoromethyl)cyclopropyl)propanamide] | < 1000 |
| CC(C)(CC(=O)Nc1nc2ccc(F)c(C#N)c2n1C1(C)CCC1)C1CC1 [Example 541, N-(7-cyano-6-fluoro-1-(1-methylcyclobutyl)-1H-benzo[d]imidazol-2-yl)-3-cyclopropyl-3-methylbutanamide] | < 1000 |
| CC(C)(C)CC(=O)Nc1nc2ccc(C3(O)CCC3)c(C(F)(F)F)c2n1C1CCC1 [Example 490, N-(1-cyclobutyl-6-(1-hydroxycyclobutyl)-7-(trifluoromethyl)-1H-benzo[d]imidazol-2-yl)-3,3-dimethylbutanamide] | < 1000 |
| CC(C)(C)CC(=O)Nc1nc2ccc(C#N)c(OC(F)(F)F)c2n1C1CCC1 [Example 498, N-(6-cyano-1-cyclobutyl-7-(trifluoromethoxy)-1H-benzo[d]imidazol-2-yl)-3,3-dimethylbutanamide] | < 1000 |

More lines, now with the values ahead:

| EC50 [nM] | SMILES |
| --- | --- |
| < 1000 | CC(C)(C)n1c(NC(=O)CC2CC(F)(F)C2(F)F)nc2cc(F)ccc21 (single isomer, unassigned) [Example 529, N-(1-(tert-butyl)-5-fluoro-1H-benzo[d]imidazol-2-yl)-2-(2,2,3,3-tetrafluorocyclobutyl)acetamide] |
| < 1000 | CC(C)(C)n1c(NC(=O)CC2CC(F)(F)C2(F)F)nc2c(F)cc(C#N)c(F)c21 (single isomer, unassigned) [Example 496, N-(1-(tert-butyl)-6-cyano-4,7-difluoro-1H-benzo[d]imidazol-2-yl)-2-(2,2,3,3-tetrafluorocyclobutyl)acetamide] |
| < 1000 | CC(C)(O)c1cc(F)c2nc(NC(=O)CC3CC(F)(F)C3(F)F)n(C3(C)CCC3)c2c1 (single isomer, unassigned) [Example 519, N-(4-fluoro-6-(2-hydroxypropan-2-yl)-1-(1-methylcyclobutyl)-1H-benzo[d]imidazol-2-yl)-2-(2,2,3,3-tetrafluorocyclobutyl)acetamide] |
| < 1000 | CC1(n2c(NC(=O)CC3CC(F)(F)C3(F)F)nc3cc(F)c(Cl)cc32)CCC1 (single isomer, unassigned) [Example 539, N-(6-chloro-5-fluoro-1-(1-methylcyclobutyl)-1H-benzo[d]imidazol-2-yl)-2-(2,2,3,3-tetrafluorocyclobutyl)acetamide] |
| < 1000 | COc1cc(C#N)cc2c1nc(NC(=O)CC1CC(F)(F)C1(F)F)n2C(C)(C)C (single isomer, unassigned) [Example 506, N-(1-(tert-butyl)-6-cyano-4-methoxy-1H-benzo[d]imidazol-2-yl)-2-(2,2,3,3-tetrafluorocyclobutyl)acetamide] |
| < 1000 | CC(C)(C)n1c(NC(=O)CC2CC(F)(F)C2(F)F)nc2cc(F)c(Cl)cc21 (single isomer, unassigned) [Example 535, N-(1-(tert-butyl)-6-chloro-5-fluoro-1H-benzo[d]imidazol-2-yl)-2-(2,2,3,3-tetrafluorocyclobutyl)acetamide] |
| < 1000 | COc1cc(C#N)cc2c1nc(NC(=O)CC1CC(F)(F)C1(F)F)n2C1(C)CCC1 (single isomer, unassigned) [Example 553, N-(6-cyano-4-methoxy-1-(1-methylcyclobutyl)-1H-benzo[d]imidazol-2-yl)-2-(2,2,3,3-tetrafluorocyclobutyl)acetamide] |
| < 1000 | CC1(n2c(NC(=O)CC3CC(F)(F)C3(F)F)nc3c(F)cc(C#N)cc32)CCC1 (single isomer, unassigned) [Example 512, N-(6-cyano-4-fluoro-1-(1-methylcyclobutyl)-1H-benzo[d]imidazol-2-yl)-2-(2,2,3,3-tetrafluorocyclobutyl)acetamide] |
| < 1000 | CC1(n2c(NC(=O)CC3CC(F)(F)C3(F)F)nc3ccc(F)c(Br)c32)CCC1 (single isomer, unassigned) [Example 549, N-(7-bromo-6-fluoro-1-(1-methylcyclobutyl)-1H-benzo[d]imidazol-2-yl)-2-(2,2,3,3-tetrafluorocyclobutyl)acetamide] |
| < 1000 | CC1(n2c(NC(=O)CC3CC(F)(F)C3(F)F)nc3cc(F)cc(C#N)c32)CCC1 (single isomer, unassigned) [Example 545, N-(7-cyano-5-fluoro-1-(1-methylcyclobutyl)-1H-benzo[d]imidazol-2-yl)-2-(2,2,3,3-tetrafluorocyclobutyl)acetamide] |
| < 1000 | CC(C)(n1c(NC(=O)CC2CC(F)(F)C2(F)F)nc2ccc(C#N)cc21)C(F)(F)F (single isomer, unassigned) [Example 488, N-(6-cyano-1-(1,1,1-trifluoro-2-methylpropan-2-yl)-1H-benzo[d]imidazol-2-yl)-2-(2,2,3,3-tetrafluorocyclobutyl)acetamide] |
| < 1000 | CC1(n2c(NC(=O)CC3(C(F)(F)F)CC3)nc3c(F)cc(C#N)cc32)CCC1 [Example 561, N-(6-cyano-4-fluoro-1-(1-methylcyclobutyl)-1H-benzo[d]imidazol-2-yl)-2-(1-(trifluoromethyl)cyclopropyl)acetamide] |
| < 1000 | CC(C)(C)n1c(NC(=O)CC2CC(F)(F)C2(F)F)nc2c(F)cc(F)cc21 (single isomer, unassigned) [Example 560, N-(1-(tert-butyl)-4,6-difluoro-1H-benzo[d]imidazol-2-yl)-2-(2,2,3,3-tetrafluorocyclobutyl)acetamide] |
| < 1000 | CC1(n2c(NC(=O)CC3CC(F)(F)C3(F)F)nc3ccc(C#N)c(OC(F)(F)F)c32)CCC1 (single isomer, unassigned) [Example 493, N-(6-cyano-1-(1-methylcyclobutyl)-7-(trifluoromethoxy)-1H-benzo[d]imidazol-2-yl)-2-(2,2,3,3-tetrafluorocyclobutyl)acetamide] |
| < 1000 | CC(C)(C)n1c(NC(=O)CC2CC(F)(F)C2(F)F)nc2cc(F)c(F)cc21 (single isomer, unassigned) [Example 557, N-(1-(tert-butyl)-5,6-difluoro-1H-benzo[d]imidazol-2-yl)-2-(2,2,3,3-tetrafluorocyclobutyl)acetamide] |
| < 1000 | N#Cc1ccc2nc(NC(=O)CC3CC(F)(F)C3(F)F)n(-c3ccc(F)cc3)c2c1 (single isomer, unassigned) [Example 551, N-(6-cyano-1-(4-fluorophenyl)-1H-benzo[d]imidazol-2-yl)-2-(2,2,3,3-tetrafluorocyclobutyl)acetamide] |
